Here are results for 16 compounds from ChEMBL document CHEMBL4414595, “Tripterfordins A-O, Dihydro-β-agarofuran Sesquiterpenoids from the Leaves of Tripterygium wilfordii” (J Nat Prod, 2019).

The subject of the experiment is RAW264.7. Kind of experiment: Anti-inflammatory activity in mouse RAW264.7 cells assessed as inhibition of LPS-induced NO production by Griess assay. The format is functional, cell-based. On the technique in general: Nitrite, measured by Griess reagent, commonly stands in for NO production.

What is called IC50 is the concentration needed to halve the response being measured. For `CC(=O)OC[C@]12[C@H](OC(C)=O)[C@@H](OC(C)=O)[C@@H]3[C@@H](O)[C@]1(OC3(C)C)[C@@](C)(O)C[C@H](OC(C)=O)[C@@H]2OC(=O)/C=C\c1ccccc1`, the IC50 came out at 31 µM. On to `CC(=O)OC[C@]12[C@H](OC(C)=O)C(=O)[C@@H]3C[C@]1(OC3(C)C)[C@@](C)(O)C[C@H](OC(C)=O)[C@@H]2OC(=O)/C=C/c1ccccc1`, for which the IC50 is above 100 µM. For `CC(=O)OC[C@]12[C@H](OC(C)=O)C(=O)[C@@H]3[C@@H](O)[C@]1(OC3(C)C)[C@@](C)(O)C[C@H](OC(C)=O)[C@@H]2OC(=O)/C=C/c1ccccc1`, the 50% inhibitory concentration (IC50) was above 100 µM. Take `CC(=O)OC[C@]12[C@H](OC(C)=O)[C@@H](OC(C)=O)[C@@H]3[C@@H](OC(C)=O)[C@]1(OC3(C)C)[C@@](C)(O)C[C@H](OC(C)=O)[C@@H]2OC(=O)/C=C\c1ccccc1`: the IC50 was above 100 µM. In the case of `CC(=O)OC[C@]12[C@H](OC(C)=O)[C@@H](OC(C)=O)[C@@H]3C[C@]1(OC3(C)C)[C@@](C)(O)C[C@H](OC(C)=O)[C@@H]2OC(=O)/C=C\c1ccccc1`, the half-maximal inhibitory concentration (IC50) is 19.1 µM.

For `CC(=O)OC[C@]12[C@H](OC(C)=O)[C@@H](OC(C)=O)[C@@H]3[C@@H](O)[C@]1(OC3(C)C)[C@H](C)[C@@H](O)[C@H](OC(C)=O)[C@@H]2OC(=O)/C=C/c1ccccc1`, the IC50 is above 100 µM. Turning to `CC(=O)OC[C@]12[C@H](OC(C)=O)[C@@H](O)[C@@H]3[C@@H](O)[C@]1(OC3(C)C)[C@@](C)(O)C[C@H](O)[C@@H]2OC(=O)/C=C/c1ccccc1`, the half-maximal inhibitory concentration (IC50) is above 100 µM. Then `CC(=O)OC[C@]12[C@H](OC(C)=O)[C@@H](OC(C)=O)[C@@H]3[C@@H](O)[C@]1(OC3(C)C)[C@H](C)C[C@H](OC(C)=O)[C@@H]2OC(=O)/C=C/c1ccccc1`, with 11.9 µM; and `CC(=O)OC[C@]12[C@H](OC(C)=O)[C@@H](OC(C)=O)[C@@H]3[C@@H](O)[C@]1(OC3(C)C)[C@@](C)(O)[C@@H](O)[C@H](OC(C)=O)[C@@H]2OC(=O)/C=C/c1ccccc1`, with 53.7 µM; and `CC(=O)OC[C@]12[C@H](OC(C)=O)[C@@H](OC(C)=O)[C@@H]3C[C@]1(OC3(C)C)[C@@](C)(O)C[C@H](OC(C)=O)[C@@H]2OC(=O)/C=C/c1ccccc1`, with above 100 µM. With `CC(=O)OC[C@]12[C@H](OC(C)=O)[C@@H](OC(C)=O)[C@@H]3C[C@]1(OC3(C)C)[C@H](C)C[C@H](OC(C)=O)[C@@H]2OC(=O)/C=C\c1ccccc1`, the IC50 is above 100 µM.

Turning to `CC(=O)OC[C@]12[C@H](OC(C)=O)[C@@H](OC(C)=O)[C@@H]3[C@@H](O)[C@]1(OC3(C)C)[C@@](C)(O)C[C@H](OC(C)=O)[C@@H]2OC(=O)/C=C/c1ccccc1`, the IC50 came out at 24.2 µM. Turning to `CC(=O)OC[C@]12[C@H](OC(C)=O)[C@@H](OC(C)=O)[C@@H]3C[C@]1(OC3(C)C)[C@H](C)C[C@H](OC(C)=O)[C@@H]2OC(=O)/C=C/c1ccccc1`, the IC50 is above 100 µM. Then `CC(=O)OC[C@]12[C@H](OC(C)=O)[C@@H](OC(C)=O)[C@@H]3[C@@H](O)[C@]1(OC3(C)C)[C@H](C)C[C@H](OC(C)=O)[C@@H]2OC(=O)/C=C\c1ccccc1`, with 28.2 µM; and `CC(=O)O[C@H]1C[C@@H](C)[C@]23OC(C)(C)[C@H]([C@H](O)[C@@H](OC(=O)c4ccccc4)[C@]2(CO)[C@H]1OC(=O)/C=C/c1ccccc1)[C@H]3OC(C)=O`, with above 100 µM; and `C[C@]12CCC(=O)C=C1CC[C@@H]1[C@@H]2[C@@H](O)C[C@@]2(C)[C@H]1CC[C@]2(O)C(=O)COC(=O)CCC(=O)O` [HYDROCORTISONE SODIUM SUCCINATE], with 42.4 µM.
